The values below come from publication PMC4766439, “Discovery of novel PDE9 inhibitors capable of inhibiting Aβ aggregation as potential candidates for the treatment of Alzheimer’s disease” (Scientific Reports, 2016).

Read-outs that look alike come from different tables or passages of the source.

The nature of series [1]: Oxygen Radical Absorbance Capacity (ORAC-FL) assay. As to conditions: Trolox as standard.
Description: The assays were performed in 75 mM PBS (pH 7.4) and all the tested compounds were dissolved in DMSO and diluted with the PBS. Trolox was used as a standard (1–10 μM final concentration). The tested compounds at different concentrations (20 μL, final concentration: 2 μM) and fluorescein (FL, 120 μL, final concentration: 300 nM) were placed in the wells of a black 96-well plate. The mixture was incubated for 10 min at 37 °C and then, APPH solution (60 μL, final concentration: 12 mM diluted by 75 mM PBS) was added rapidly. […] A blank (FL + AAPH), with PBS replacing the compounds and Trolox was used for calibration in each assay. The compounds were tested at different concentrations (0.5–10 μM). The experiments were performed in three independent runs for each sample. The fluorescence measurements were normalized to that of the blank (without antioxidant). The area under the fluorescence decay curve (AUC) was calculated using the following equation (eq. 2):
where f0 is the fluorescence reading at 0 min and fi is the fluorescence reading at time i. The net AUC was calculated by the expression AUCsample − AUCblank. Regression equations between net AUC and Trolox concentrations were calculated. The final results were expressed in μM of Trolox equivalent/μM of pure compounds.
The target of series [2] is T1, Aβ1-42 (Homo sapiens, UniProt P05067).
T1 construct: the Aβ1-42 stock solution was diluted with HEPES buffer; purchased Sigma
The series is described as follows: ThT assay, inhibition of Cu^2+-induced Aβ1-42 aggregation. The class given is biochemical. To be noted: [Aβ1-42] = 25 μM, compound 50 μM, [Cu^2+] = 25 μM, 37 °C, 24 h.
Description: The Aβ1−42 sample (Sigma, US) was pretreated with hexafluoro-2-propanol (HFIP) and dissolved in ammonium hydroxide (1% v/v) to prepare a stock solution (2000 μM) that was aliquoted into small samples and stored at −80 °C.

The target of series [3] is T1, Aβ1-42. The series is described as follows: Transmission electron microscopy (TEM) assay of Aβ1-42. It is filed as biochemical. To be noted: [Aβ1-42] = 25 μM, compound 50 μM, [Cu^2+] = 25 μM, 37 °C, 24 h. As for the experimental part:
The assays were performed as reported previously. For the TEM assay of copper (II)-induced Aβ1-42 aggregation and the disaggregation of the fibrils, the samples were pretreated as described for the ThT assay. Samples (10 μL) were placed on a carbon-coated copper/rhodium grid for 2 min. Then, each grid was stained with uranyl acetate (1%, 5 μL) for 2 min. After the excess staining solution was drained off, the specimen was transferred for imaging by a transmission electron microscope (JEOL JEM-1400).

Series [4] addresses T2, Aβ1-42 fibrils (Homo sapiens, UniProt P05067).
T2 construct: purchased Sigma
In words: ThT assay, disaggregation of Cu^2+-induced Aβ1-42 fibrils. As to conditions: [Aβ1-42] = 25 μM, compound 50 μM, [Cu^2+] = 25 μM, additional 24 h. It is filed as biochemical. As for the experimental part:
For assaying the disaggregation of the copper (II)-induced Aβ1-42 fibrils, the Aβ1-42 stock solution was first diluted in HEPES buffer ([…], pH 6.6). The mixture of the peptide (10 μL, 25 μM final concentration) and copper (II) (10 μL, 25 μM final concentration) was then incubated at 37 °C for 24 h. Then, the test compound (10 μL, 50 μM final concentration) was added and incubated at 37 °C for an additional 24 h. Thereafter, 30 μL of the sample was diluted to a final volume of 200 μL with 50 mM glycine-NaOH buffer (pH 8.0) containing thioflavin-T (5 μM) in the dark. The detection method used was the same as that described above.

A short description of series [5]: PAMPA-BBB in vitro blood-brain barrier permeation assay. The class given is in vitro ADME. To be noted: for Papp at 10 h, 100 μg/mL: PAMPA, read-out: Permeability; for prediction of penetration into the CNS: from PAMPA-BBB Pe.
Description: The blood–brain barrier penetration capacity of the compounds was evaluated by using the parallel artificial membrane permeation assay (PAMPA). […] The porcine brain lipid (PBL) was obtained from Avanti Polar Lipids. The donor microplate (PVDF membrane, pore size of 0.45 nm) and the acceptor microplate were from Millipore. The acceptor 96-well microplate (COSTAR) was filled with 300 μL of a PBS/EtOH mixture (7:3) and the filter membrane was impregnated with 4 μL of PBL in dodecane (20 mg/mL). The compounds were dissolved in DMSO at a concentration of 5 mg/mL and diluted with the PBS/EtOH mixture (7:3) to a concentration of 100 μg /mL. Then, 200 μL of this solution was added to the donor wells and the wells were carefully placed on the acceptor plate, which was then incubated for 10 h at 25 °C in a vibrationless environment. After the incubation, the donor plate was removed and the concentration of compounds in the acceptor wells was determined with a UV plate reader (Flexstation 3). Each sample was analyzed at five wavelengths in four wells, and at least three independent runs were performed. The results are expressed as the mean ± standard deviation. In these experiments, 13 quality control standards of known BBB permeability were included to validate the analysis set.
where Vd is the volume in the donor well, Va is the volume in acceptor well, A is the filter area, t is the permeation time, [drug]acceptor is the absorbance of the compound in the acceptor well, and [drug]equilibrium is the theoretical equilibrium absorbance.
Series [6] concerns the target T3, PDE9A2 (181–506) (Homo sapiens, UniProt O76083).
T3 construct: PDE9A2 (181–506)
In words: PDE activity assay, PDE9 catalytic domain. The class given is biochemical. To be noted: means ± SD of at least three independent experiments.
Description: (§1) The enzymatic activities of the catalytic domains of PDE9 and other PDEs were measured by using cGMP or cAMP as substrates. The assay buffer contained 20–50 mM Tris–HCl (pH 7.5–8.0), 10 mM MgCl2 or 4 mM MnCl2, 1 mM DTT, and 10–20 nM ^3H-cGMP or ^3H-cAMP (20000–30000 cpm/assay, GE Healthcare). The reaction was performed at room temperature for 15 min and then terminated by the addition of 0.2 M ZnSO4. The addition of 0.25 M BaSO4 precipitated the generated ^3H-GMP, whereas the unreacted ^3H-cGMP remained in solution. The radioactivity in the supernatant was measured in 2.5 mL with an Ultim Gold liquid scintillation counter. […] The IC50 values were calculated by nonlinear regression method by using GraphPad Prism 5.0 Software.

The target in series [7] is T4, PDE8A1 (480–820) (Homo sapiens, UniProt O60658).
T4 construct: PDE8A1 (480–820)
The series is described as follows: PDE activity assay, PDE8A1 catalytic domain. The class given is biochemical.
Description: as §1

For series [8], the target named is T5, PDE2A3 (580–941) (Homo sapiens, UniProt O00408).
T5 construct: PDE2A3 (580–941)
The series is described as follows: PDE activity assay, PDE2A3 catalytic domain. It is filed as biochemical.
Description: as §1

Series [9] deals with T6, PDE4D2 (86–413) (Homo sapiens, UniProt Q08499).
T6 construct: PDE4D2 (86–413)
In words: PDE activity assay, PDE4D2 catalytic domain. The class given is biochemical.
Description: as §1

Series [10] addresses T7, PDE7A1 (130–482) (Homo sapiens, UniProt Q13946).
T7 construct: PDE7A1 (130–482)
The series is described as follows: PDE activity assay, PDE7A1 catalytic domain. The class given is biochemical.
Description: as §1

The target of series [11] is T8, PDE1B2 (10–487) (Homo sapiens, UniProt Q01064).
T8 construct: PDE1B2 (10–487)
In words: PDE activity assay, PDE1B2 catalytic domain. It is filed as biochemical.
Description: as §1

Series [12] has as its target T9, PDE10A2 (448–789) (Homo sapiens, UniProt Q9Y233).
T9 construct: PDE10A2 (448–789)
In words: PDE activity assay, PDE10A2 catalytic domain. The class given is biochemical.
Description: as §1

Series [13] is described as follows: Lipid-water distribution coefficient, shake-flask 1-octanol/water. The class given is physicochemical. To be noted: 1-octanol/water (1:1), means of at least three independent tests.
Series [14] concerns the target T10, PDE3A (679–1087) (Homo sapiens, UniProt Q14432).
T10 construct: PDE3A (679–1087)
In words: PDE activity assay, PDE3A catalytic domain. It is filed as biochemical.
Description: as §1

Series [15] deals with PDE5A1 (535–860) (Homo sapiens, UniProt O76074). In words: PDE activity assay, PDE5A1 catalytic domain. The class given is biochemical.
Description: as §1
Setting [16] is: PBS:EtOH (70:30), mean ± SD of three independent experiments.

T3 sequence (O76083 241-566): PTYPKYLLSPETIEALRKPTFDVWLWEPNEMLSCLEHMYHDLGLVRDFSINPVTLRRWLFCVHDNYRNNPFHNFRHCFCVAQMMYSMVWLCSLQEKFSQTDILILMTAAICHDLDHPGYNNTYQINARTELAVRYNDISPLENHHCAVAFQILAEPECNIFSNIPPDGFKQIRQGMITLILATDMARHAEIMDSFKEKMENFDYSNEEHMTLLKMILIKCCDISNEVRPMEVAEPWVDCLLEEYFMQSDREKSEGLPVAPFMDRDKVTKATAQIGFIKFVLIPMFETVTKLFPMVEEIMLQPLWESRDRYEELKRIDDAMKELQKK
T1 sequence (P05067 672-713 limits assumed): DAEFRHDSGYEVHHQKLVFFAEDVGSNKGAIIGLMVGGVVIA
T6 sequence (Q08499 388-715): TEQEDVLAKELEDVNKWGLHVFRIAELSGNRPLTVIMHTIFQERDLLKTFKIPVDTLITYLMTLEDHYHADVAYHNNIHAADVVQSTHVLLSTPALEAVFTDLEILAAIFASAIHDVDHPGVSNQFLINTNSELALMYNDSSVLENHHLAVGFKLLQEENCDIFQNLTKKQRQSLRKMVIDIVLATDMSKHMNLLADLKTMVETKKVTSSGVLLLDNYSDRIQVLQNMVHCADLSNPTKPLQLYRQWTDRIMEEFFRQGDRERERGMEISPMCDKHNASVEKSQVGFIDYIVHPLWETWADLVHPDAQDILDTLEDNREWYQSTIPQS
T10 sequence (Q14432 679-1087): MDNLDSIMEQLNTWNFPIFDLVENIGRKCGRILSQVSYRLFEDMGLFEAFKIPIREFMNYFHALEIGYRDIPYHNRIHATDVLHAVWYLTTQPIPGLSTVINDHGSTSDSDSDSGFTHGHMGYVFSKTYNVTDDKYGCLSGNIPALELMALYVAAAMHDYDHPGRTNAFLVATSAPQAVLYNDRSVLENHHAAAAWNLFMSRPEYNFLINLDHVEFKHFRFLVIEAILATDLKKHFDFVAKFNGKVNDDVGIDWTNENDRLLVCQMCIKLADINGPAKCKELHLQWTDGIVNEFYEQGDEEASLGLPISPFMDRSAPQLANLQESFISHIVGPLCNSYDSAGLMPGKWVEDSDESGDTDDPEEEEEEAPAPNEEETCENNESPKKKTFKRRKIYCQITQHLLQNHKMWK
T7 sequence (Q13946 130-482): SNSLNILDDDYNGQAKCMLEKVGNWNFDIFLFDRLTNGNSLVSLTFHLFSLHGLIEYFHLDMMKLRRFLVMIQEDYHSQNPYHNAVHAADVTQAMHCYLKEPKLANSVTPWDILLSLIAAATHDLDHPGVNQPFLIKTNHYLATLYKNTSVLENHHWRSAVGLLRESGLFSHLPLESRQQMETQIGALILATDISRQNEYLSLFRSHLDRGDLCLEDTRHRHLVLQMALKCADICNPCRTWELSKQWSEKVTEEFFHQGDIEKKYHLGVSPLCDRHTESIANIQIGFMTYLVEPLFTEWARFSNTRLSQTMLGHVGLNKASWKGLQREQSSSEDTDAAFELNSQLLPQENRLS
T4 sequence (O60658 480-820): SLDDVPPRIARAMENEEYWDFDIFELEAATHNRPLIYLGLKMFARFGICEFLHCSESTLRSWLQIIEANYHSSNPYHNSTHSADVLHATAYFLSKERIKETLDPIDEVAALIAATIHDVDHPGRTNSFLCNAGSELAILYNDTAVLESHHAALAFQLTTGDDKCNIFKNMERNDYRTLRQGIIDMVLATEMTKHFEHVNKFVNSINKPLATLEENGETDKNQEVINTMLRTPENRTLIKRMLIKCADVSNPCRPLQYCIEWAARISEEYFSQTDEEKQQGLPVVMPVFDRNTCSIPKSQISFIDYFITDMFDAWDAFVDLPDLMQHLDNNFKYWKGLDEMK
T5 sequence (O00408 580-941): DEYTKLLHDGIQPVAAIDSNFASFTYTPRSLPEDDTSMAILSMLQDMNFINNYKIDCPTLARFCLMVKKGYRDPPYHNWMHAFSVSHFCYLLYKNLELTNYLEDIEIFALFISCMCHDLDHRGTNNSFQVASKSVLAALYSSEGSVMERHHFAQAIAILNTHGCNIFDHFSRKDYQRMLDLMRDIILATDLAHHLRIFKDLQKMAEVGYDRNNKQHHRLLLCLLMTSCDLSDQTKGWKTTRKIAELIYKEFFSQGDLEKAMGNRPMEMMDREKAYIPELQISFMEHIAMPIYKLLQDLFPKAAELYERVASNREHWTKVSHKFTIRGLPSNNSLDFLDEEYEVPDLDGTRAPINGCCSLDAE
T8 sequence (Q01064 10-487 isoform Q01064-2): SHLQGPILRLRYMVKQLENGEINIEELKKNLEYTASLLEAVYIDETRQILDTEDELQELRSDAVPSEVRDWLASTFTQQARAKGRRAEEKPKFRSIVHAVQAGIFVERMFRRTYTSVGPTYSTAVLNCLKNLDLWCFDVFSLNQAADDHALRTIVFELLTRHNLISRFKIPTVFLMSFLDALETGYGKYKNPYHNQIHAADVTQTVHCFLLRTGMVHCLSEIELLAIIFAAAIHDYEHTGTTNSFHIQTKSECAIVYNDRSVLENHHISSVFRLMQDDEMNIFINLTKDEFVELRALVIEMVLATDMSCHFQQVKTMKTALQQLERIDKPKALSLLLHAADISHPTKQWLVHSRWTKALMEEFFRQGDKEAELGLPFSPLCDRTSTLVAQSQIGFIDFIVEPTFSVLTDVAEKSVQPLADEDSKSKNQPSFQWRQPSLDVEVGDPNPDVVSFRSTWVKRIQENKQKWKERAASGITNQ
T9 sequence (Q9Y233 714-1055): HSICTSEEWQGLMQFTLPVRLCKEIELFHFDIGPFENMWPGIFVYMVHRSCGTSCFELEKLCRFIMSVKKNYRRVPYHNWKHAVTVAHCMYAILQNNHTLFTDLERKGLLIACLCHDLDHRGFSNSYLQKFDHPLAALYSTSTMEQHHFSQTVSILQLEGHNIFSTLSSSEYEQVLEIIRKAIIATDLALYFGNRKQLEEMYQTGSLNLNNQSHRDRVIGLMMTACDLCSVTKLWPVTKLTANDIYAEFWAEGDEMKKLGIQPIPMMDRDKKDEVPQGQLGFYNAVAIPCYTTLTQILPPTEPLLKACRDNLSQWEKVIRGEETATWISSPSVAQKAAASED
T2 sequence (P05067 672-713 limits assumed): as the sequence (P05067 672-713 limits assumed) above

Consider `Oc1c(I)cc(Cl)c2cccnc12` [CQ, clioquinol, reference compound], for which the “oxygen radical absorbance capacity, ORAC-FL value” in [1] is given as 0.62 ORAC-FL units. In [2], the “inhibitory ratio of Cu^2+-induced Aβ1-42 aggregation (ThT)” value (“inhibitory ratio” below) was determined as 52.5%. In series [3], the “Aβ fibrils by TEM, disaggregation of preformed fibrils” value is “drastically reduced the amount of Aβ fibrils” and the “Aβ fibrils by TEM, inhibition of Cu^2+-induced aggregation” value is recorded as “fewer Aβ fibrils were detected”. The “disaggregation of Cu^2+-induced Aβ1-42 fibrils (ThT)” value in series [4] turned out to be 50.9%.
For the compound `CN(C)CCCN1c2ccccc2Sc2ccc(Cl)cc21` [Chlorpromazine, reference compound], the Papp at 10 h, 100 μg/mL in [5] is 6 ± 0.3 ×10⁻⁶ cm/s.
In [6], `C[C@@H](/N=C/c1ccccc1O)c1nc2c(cnn2C2CCCC2)c(=O)[nH]1` [Compound 12] had an IC50 of 211 ± 6 nM. In series [1], the ORAC is on record as 0.23 ± 0.02 μmol of Trolox equiv/μmol tested compound.
The corresponding values for `COc1ccc(/C=N/[C@H](C)c2nc3c(cnn3C3CCCC3)c(=O)[nH]2)c(O)c1` [Compound 13] are 35 ± 3 nM and 0.15 ± 0.01 μmol of Trolox equiv/μmol tested compound.
For `COc1ccc(/C=N/[C@H](C)c2nc3c(cnn3C3CCOCC3)c(=O)[nH]2)c(O)c1` [Compound 14], in that order: 12 ± 1 nM and 0.22 ± 0.12 μmol of Trolox equiv/μmol tested compound.
For `C[C@@H](NCc1ccccc1O)c1nc2c(cnn2C2CCCC2)c(=O)[nH]1` [Compound 15], in that order: 58 ± 2 nM and 4.75 ± 0.72 μmol of Trolox equiv/μmol tested compound.
`COc1ccc(CN[C@H](C)c2nc3c(cnn3C3CCOCC3)c(=O)[nH]2)c(O)c1` [Compound 17] registered an IC50 in series [6] of 51 ± 2 nM. For the same compound, the ORAC in series [1] is 5.13 ± 0.22 μmol of Trolox equiv/μmol tested compound. In series [5] (setting [16]), the Papp at 10 h, 100 μg/mL came to 6.54 ± 0.76 ×10⁻⁶ cm/s. Besides, the “prediction of penetration into the CNS” value in series [5] was “CNS+ (Compounds of high BBB permeation (CNS+) Pe > 4.7)”.
In turn, `C[C@H](NCc1ccccc1O)c1nc2c(cnn2C2CCCC2)c(=O)[nH]1` [Compound 18] gave an IC50 in series [6] of 114 ± 7 nM. In series [1], the ORAC is given as 4.51 ± 0.43 μmol of Trolox equiv/μmol tested compound.
With `COc1ccc(O)c(CN[C@H](C)c2nc3c(cnn3C3CCCC3)c(=O)[nH]2)c1` [Compound 19], the IC50 in series [6] turned out to be 33 ± 3 nM. Besides, in [1], the ORAC was 3.54 ± 0.25 μmol of Trolox equiv/μmol tested compound.
The corresponding values for `COc1cccc(CN[C@H](C)c2nc3c(cnn3C3CCCC3)c(=O)[nH]2)c1O` [Compound 20] are 33 ± 4 nM and 3.50 ± 0.01 μmol of Trolox equiv/μmol tested compound.
Consider `C[C@@H](NCc1cc(Cl)ccc1O)c1nc2c(cnn2C2CCCC2)c(=O)[nH]1` [Compound 21], for which the IC50 in series [6] was found to be 47 ± 5 nM. Besides, the ORAC in series [1] is listed as 5.84 ± 0.50 μmol of Trolox equiv/μmol tested compound. In [2], the “inhibitory ratio” value is reported as 65.7%.
For the compound `C[C@@H](NCc1cc(F)ccc1O)c1nc2c(cnn2C2CCCC2)c(=O)[nH]1` [Compound 22], the IC50 was 31 ± 1 nM in series [6]; over 50000 nM in [7]; 13000 nM in series [8]; 11000 nM in series [9]; over 40000 nM in series [10]; 7000 nM in [11]. Also, the IC50 in [12] was 33000 nM; in [14], over 10000 nM; in series [15], 1600 nM. In series [7], the “fold of selectivity of PDE9 over PDE8A1” value is on record as over 1598 fold. Besides, in [1], the ORAC is recorded as 5.52 ± 0.51 μmol of Trolox equiv/μmol tested compound. The “fold of selectivity of PDE9 over PDE2A3” value in series [8] was 421 fold. For the same compound, the “fold of selectivity of PDE9 over PDE4D2” value in series [9] stood at 355 fold. The “fold of selectivity of PDE9 over PDE7A1” value in [10] is recorded as over 1278 fold. The “fold of selectivity of PDE9 over PDE1B2” value in series [11] is listed as 234 fold. In addition, the logP at 30 min in series [13] stood at 1.51. Further, the Papp at 10 h, 100 μg/mL in [5] (setting [16]) turned out to be 33.2 ± 4.76 ×10⁻⁶ cm/s. The “prediction of penetration into the CNS” value in series [5] is “CNS+ (Compounds of high BBB permeation (CNS+) Pe > 4.7)”. Also, in series [14], the “fold of selectivity of PDE9 over PDE3A” value turned out to be 323 fold. Also, the “fold of selectivity of PDE9 over PDE5A1” value in series [15] was found to be 50 fold.
For `C[C@@H](NCc1cc([N+](=O)[O-])ccc1O)c1nc2c(cnn2C2CCCC2)c(=O)[nH]1` [Compound 23], the IC50 in [6] was determined as 36 ± 4 nM. For the same compound, the ORAC in series [1] is given as 1.02 ± 0.05 μmol of Trolox equiv/μmol tested compound.
For `C[C@@H](NCc1cc(N(C)C)ccc1O)c1nc2c(cnn2C2CCCC2)c(=O)[nH]1` [Compound 24], in that order: 47 ± 3 nM and 5.62 ± 0.02 μmol of Trolox equiv/μmol tested compound.
In [6], `C[C@H](NCc1ccccn1)c1nc2c(cnn2C2CCCC2)c(=O)[nH]1` [Compound 25] yielded an IC50 of 310 ± 13 nM. Also, the ORAC in series [1] is reported as 0 μmol of Trolox equiv/μmol tested compound.
In series [6], `C[C@@H](NCc1ccccn1)c1nc2c(cnn2C2CCCC2)c(=O)[nH]1` [Compound 26] displayed an IC50 of 77 ± 3 nM. For the same compound, in series [1], the ORAC was 0 μmol of Trolox equiv/μmol tested compound.
For `Cc1cccc(CN[C@H](C)c2nc3c(cnn3C3CCCC3)c(=O)[nH]2)n1` [Compound 27], in that order: 60 ± 2 nM and 0 μmol of Trolox equiv/μmol tested compound.
For `C[C@@H](/N=C/c1cccc(Br)n1)c1nc2c(cnn2C2CCCC2)c(=O)[nH]1` [Compound 28], half-maximal inhibition in series [6] (IC50) was put at 1160 ± 90 nM. The ORAC in [1] is 0 μmol of Trolox equiv/μmol tested compound.
Take `C[C@@H](NCc1cccc(Br)n1)c1nc2c(cnn2C2CCCC2)c(=O)[nH]1` [Compound 29]: in series [6], inhibition was half-maximal at 38 ± 3 nM (IC50). In addition, in series [1], the ORAC is 0 μmol of Trolox equiv/μmol tested compound. For the same compound, the “inhibitory ratio” value in [2] came to 59.1%.
For the compound `COc1ccc2[nH]cc(CCNC(C)=O)c2c1` [melatonin, reference compound], the “oxygen radical absorbance capacity, ORAC-FL value” in series [1] is recorded as 2.00 ORAC-FL units.
